We go through two compounds from US20110190392A1, “Polysaccharide Based Antimicrobial Formulations” (priority 2010, published 2011).

Assay type in all cases: cell-based
For one experiment, the system named is Ad-5. The experiment is described as follows: Antiviral log reduction (Table 2B).
The test system of experiment [1] is Escherichia coli ATCC 25922. The experiment is described as follows: MBC of NVC-422 (Table 2A). As to conditions: ATCC25922.
Experiment [2] has as its system Enterobacter aerogenes ATCC 51697. The experiment can be described thus: MBC of NVC-422 (Table 2A). As to conditions: Klebsiella aerogenes, ATCC51697.
Experiment [3] has as its system Candida glabrata ATCC 90030. The experiment can be described thus: MBC of NVC-422 (Table 2A). As to conditions: Nakaseomyces glabratus, ATCC90030.
For experiment [4], the system named is Enterococcus faecalis ATCC 29212. The experiment is described as follows: MBC of NVC-422 (Table 2A). The note with it: ATCC29212.
Experiment [5] relates to Staphylococcus epidermidis ATCC 12228. The experiment can be described thus: MBC of NVC-422 (Table 2A). As to conditions: ATCC12228.
Experiment [6] concerns Staphylococcus sciuri ATCC 49575. The experiment is described as follows: MBC of NVC-422 (Table 2A). The note with it: Mammaliicoccus sciuri, ATCC49575.
In experiment [7] the test system is Acinetobacter calcoaceticus ATCC 51432. The experiment can be described thus: MBC of NVC-422 (Table 2A). As to conditions: ATCC51432.
Experiment [8] concerns Serratia marcescens ATCC 13880. The experiment is described as follows: MBC of NVC-422 (Table 2A). As to conditions: ATCC13880.
The subject of experiment [9] is Acinetobacter baumanii ATCC 19606. The experiment can be described thus: MBC of NVC-422 (Table 2A). The note with it: Acinetobacter baumannii, ATCC19606.
In experiment [10] the test system is Serratia marcescens ATCC 14756. The experiment is described as follows: MBC of NVC-422 (Table 2A). As to conditions: ATCC14756.
In the next experiment the test system is Rhinovirus-39. The experiment is described as follows: Antiviral log reduction (Table 2B).
The test system of experiment [11] is Pseudomonas aeruginosa ATCC 27853. The experiment can be described thus: MBC of NVC-422 (Table 2A). As to conditions: ATCC27853.
The test system of experiment [12] is Proteus mirabilis ATCC 29245. The experiment is described as follows: MBC of NVC-422 (Table 2A). The note with it: ATCC29245.
Experiment [13] deals with Staphylococcus aureus ATCC 6358. The experiment can be described thus: MBC of NVC-422 (Table 2A). As to conditions: ATCC6358.
Experiment [14] has as its system Staphylococcus aureus ATCC 29213. The experiment can be described thus: MBC of NVC-422 (Table 2A). As to conditions: ATCC29213.
For experiment [15], the system named is Enterococcus faecium [VRE] ATCC 51559. The experiment can be described thus: MBC of NVC-422 (Table 2A).
Experiment [16] relates to Haemophilus influenzae ATCC 49144. The experiment is described as follows: MBC of NVC-422 (Table 2A). The note with it: ATCC49144.
Experiment [17] concerns Klebsiella pneumoniae ATCC 10031. The experiment is described as follows: MBC of NVC-422 (Table 2A). As to conditions: ATCC10031.
Experiment [18] has as its system Staphylococcus aureus [MRSA] ATCC 33591. The experiment is described as follows: MBC of NVC-422 (Table 2A).
The test system of a further experiment is Influenza A. The experiment is described as follows: Antiviral log reduction (Table 2B).
Experiment [19] has as its system Staphylococcus hominis ATCC 27844. The experiment can be described thus: MBC of NVC-422 (Table 2A). The note with it: ATCC27844.
Experiment [20] has as its system Candida albicans ATCC 10231. The experiment is described as follows: MBC of NVC-422 (Table 2A). The note with it: ATCC10231.
The subject of the next experiment is HSV-1. The experiment can be described thus: Antiviral log reduction (Table 2B).

In the case of `Nc1ccn(C[C@@H](CO)OCP(=O)(O)O)c(=O)n1` [Cidofovir, reference compound], the “Log Reduction” value worked out at 0 in the experiment with Ad-5 ((Ad5/A549 control)/Cidofovir, column 0.001%) and 0 with Ad-5 ((Ad5/A549 control)/Cidofovir, column 0.01%).
Take `CC(C)(CS(=O)(=O)O)N(Cl)Cl` [NVC-422, N,N-dichloro-2,2-dimethyltaurine]: the MBC in experiment [1] is 2 µg/mL; in experiment [2] it was 0.5 µg/mL; in [3], 16 µg/mL; in [4], 0.5 µg/mL; in experiment [5], 0.25 µg/mL; in experiment [6], 0.12 µg/mL. Also, the MBC in experiment [7] is 2 µg/mL; in experiment [8], 1 µg/mL; in experiment [9] it was 4 µg/mL; in experiment [10] it was 2 µg/mL; in experiment [11], 1 µg/mL; in [12], 1 µg/mL. Moreover, the MBC is 2 µg/mL in experiment [13]; 2 µg/mL in experiment [14]; 0.5 µg/mL in [15]; 0.5 µg/mL in experiment [16]; 0.25 µg/mL in [17]; 4 µg/mL in [18]. Further, the MBC in experiment [19] was determined as 4 µg/mL; in experiment [20] it was 32 µg/mL. For the same compound, the “Log Reduction” value was 1.7 in the experiment with Rhinovirus-39 (concentration of NVC-422 0.01%); above 1.5 in the experiment with Rhinovirus-39 (concentration of NVC-422 0.1%); 1.0 with Ad-5 (Ad-5 + 10% tears, concentration of NVC-422 0.001%); 1.7 in the experiment on Ad-5 (Ad-5 + 10% tears, concentration of NVC-422 0.01%); above 3.8 in the experiment with Ad-5 (Ad-5 + 10% tears, concentration of NVC-422 0.1%); 2.8 with Ad-5 (Ad-5, concentration of NVC-422 0.001%). Also, the “Log Reduction” value with Ad-5 (Ad-5, concentration of NVC-422 0.01%) is reported as 4.3; with Ad-5 (Ad-5, concentration of NVC-422 0.1%), above 4.3; in the experiment with Influenza A (concentration of NVC-422 0.01%) it was 0.3; in the experiment with Influenza A (concentration of NVC-422 0.1%), 1.0; in the experiment on Influenza A (concentration of NVC-422 1.0%), above 3.8; with HSV-1 (HSV-1 + 10% tears, concentration of NVC-422 0.001%), 4.5. For the same compound, the “Log Reduction” value is on record as above 4.5 in the experiment on HSV-1 (HSV-1 + 10% tears, concentration of NVC-422 0.01%); above 4.5 in the experiment with HSV-1 (HSV-1, concentration of NVC-422 0.001%); above 4.5 in the experiment with HSV-1 (HSV-1, concentration of NVC-422 0.01%).
